Assays:
[1] = target: T1, OtCE15A (Opitutus terrae, UniProt B1ZMF4); assay: inhibition of BnzGlcA hydrolysis, coupled continuous assay (K-URONIC kit); type: biochemical; details: competitive; BnzGlcA as substrate
T1 construct: gene Oter_0116; recombinant in E. coli BL21 (DE3), purified as in earlier work; catalytic Ser-267, His-408, Glu-290, Asp-356

[2] = target: T1, OtCE15A; assay: as above; type: biochemical; details: BnzGlcA as substrate (3.5 mM or 350 μM)
[3] = target: T2, OtCE15A (Opitutus terrae, UniProt B1ZMF4, L269Y); assay: continuous coupled esterase assay (K-URONIC kit); type: biochemical; details: substrate inhibition constant
T2 construct: gene Oter_0116; recombinant in E. coli BL21 (DE3), purified as in earlier work; catalytic Ser-267, His-408, Glu-290, Asp-356
T2 sequence (B1ZMF4 entry or part of it L269Y): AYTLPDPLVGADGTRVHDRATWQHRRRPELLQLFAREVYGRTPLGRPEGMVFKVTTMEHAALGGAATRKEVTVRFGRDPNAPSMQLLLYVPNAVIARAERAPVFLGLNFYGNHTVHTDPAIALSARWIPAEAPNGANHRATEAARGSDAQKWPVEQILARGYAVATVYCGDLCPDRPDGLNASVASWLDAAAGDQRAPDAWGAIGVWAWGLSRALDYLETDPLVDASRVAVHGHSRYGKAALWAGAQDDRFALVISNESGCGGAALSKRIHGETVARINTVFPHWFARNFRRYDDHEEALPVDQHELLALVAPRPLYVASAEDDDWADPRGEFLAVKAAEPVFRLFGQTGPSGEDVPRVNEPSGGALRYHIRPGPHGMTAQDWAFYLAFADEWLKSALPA
Description: (§1) continuous coupled esterase assay (K-URONIC kit) on OtCE15A

[4] = target: T1, OtCE15A; assay: X-ray crystal structure; type: binding
[5] = target: T1, OtCE15A; assay: continuous coupled esterase assay (K-URONIC kit); type: biochemical
Description: as §1

[6] = target: T1, OtCE15A; assay: inhibition of BnzGlcA hydrolysis, coupled continuous assay (K-URONIC kit); type: biochemical; details: BnzGlcA as substrate (3.5 mM or 350 μM); remark: listed apart in the source

T1 sequence (B1ZMF4 entry or part of it): as the sequence (B1ZMF4 entry or part of it L269Y) above, with Y237L counted along it

OC1OC[C@@H](O)[C@H](O)[C@H]1O (some centres unmarked) [xylose]
Ki [1]: 48.1 mM

OC[C@H]1OC(O)[C@H](O)[C@@H](O)[C@@H]1O (some centres unmarked) [glucose]
% inhibition at up to 250 mM [2]: < 10%

COC(=O)[C@H]1OC(O)[C@H](O)[C@@H](O)[C@@H]1O (some centres unmarked) [MeGlcA, methyl glucuronoate]
Ksi [3]: 34.5 ± 11.9 mM

CO[C@H]1[C@H](O)[C@@H](O)[C@@H](O[C@H]2[C@H](O[C@@H]3COC(O)[C@H](O)[C@H]3O)OC[C@@H](O[C@@H]3OC[C@@H](O)[C@H](O)[C@H]3O)[C@@H]2O)O[C@@H]1C(=O)O (stereo partly drawn) [XUX, 2^3-(4-O-methyl-α-D-glucuronyl)-xylotriose]
X-ray crystal structure ([4]; active site, no variant named, taken as wild type): OtCE15A in complex with the glucuronoxylan oligosaccharide XUX (PDB code 6T0I)

COC(=O)[C@H]1OC(O)[C@H](O)[C@@H](O)[C@H]1O (some centres unmarked) [MeGalA, methyl galacturonoate]
Km [5]: 5.31 ± 0.51 mM

OC1OC[C@@H](O[C@@H]2OC[C@@H](O)[C@H](O)[C@H]2O)[C@H](O)[C@H]1O (some centres unmarked) [xylobiose]
% reduction of activity at 100 mM [6]: ~ 50% | X-ray crystal structure ([4]; active site and second site about 25 Å away, no variant named, taken as wild type): showing the two xylobiose-binding sites (PDB code 6SYU)

O=C(O)[C@H]1OC(O)[C@H](O)[C@@H](O)[C@@H]1O (some centres unmarked) [GlcA, glucuronate]
X-ray crystal structure ([4]; active site): We determined the structure of the WT OtCE15A in complex with the product GlcA

— PMC6937553, “Structural and biochemical studies of the glucuronoyl esterase OtCE15A illuminate its interaction with lignocellulosic components” (The Journal of Biological Chemistry, 2019)
